The text below walks through data of PubChem BioAssay AID328 (DTP/NCI, 2004).

Structures are written as SMILES. Inconclusive results and toxic doses are left out.

The assay relates to BDF1 mice, P388 leukemia ip, median survival T/C. The assay is described as follows: NCI In Vivo Anticancer Drug Screen. Data for tumor model P388 Leukemia (intraperitoneal) in B6D2F1 (BDF1) mice. The following applies: endpoint: median survival time, higher = longer survival. The procedure, abridged: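 Each value expresses how treatment altered survival: treated-mouse outcome over vehicle-mouse outcome, both groups bearing the transplanted tumour.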

The mark [1] stands for this setting: dose: 100.0 mg/kg/injection, schedule: Q04DX003 (ip), vehicle: saline with Tween-80.
Where [2] appears, read: dose: 200.0 mg/kg/injection, schedule: Q04DX003 (ip), vehicle: saline with Tween-80.
Where [3] appears, read: dose: 400.0 mg/kg/injection, schedule: Q04DX003 (ip), vehicle: saline with Tween-80.
[4] abbreviates: dose: 50.0 mg/kg/injection, schedule: Q01DX009 (ip), vehicle: saline with Tween-80.
The mark [5] stands for this setting: dose: 200.0 mg/kg/injection, schedule: Q01DX009 (ip), vehicle: saline with Tween-80.
The mark [6] stands for this setting: dose: 100.0 mg/kg/injection, schedule: Q01DX009 (ip), vehicle: saline with Tween-80.
Setting [7] is: dose: 50.0 mg/kg/injection, schedule: Q04DX003 (ip), vehicle: saline with Tween-80.
Setting [8] is: dose: 6.25 mg/kg/injection, schedule: Q01DX009 (ip), vehicle: saline.
Where [9] appears, read: dose: 12.5 mg/kg/injection, schedule: Q01DX009 (ip), vehicle: saline.
Setting [10] is: dose: 25.0 mg/kg/injection, schedule: Q01DX009 (ip), vehicle: saline.

Regarding `C=CC(=O)O`, the T/C (dose: 0.2 mg/kg/injection, schedule: Q01DX001 (ip), vehicle: Klucel (hydroxypropylcellulose) (HPC)) is 95 % of control; the T/C (dose: 0.41 mg/kg/injection, schedule: Q01DX001 (ip), vehicle: Klucel (hydroxypropylcellulose) (HPC)) was 100 % of control; the T/C (dose: 0.82 mg/kg/injection, schedule: Q01DX001 (ip), vehicle: Klucel (hydroxypropylcellulose) (HPC)) is 104 % of control; the T/C (dose: 1.15 mg/kg/injection, schedule: Q04DX003 (ip), vehicle: Klucel (hydroxypropylcellulose) (HPC)) was 109 % of control; the T/C (dose: 1.65 mg/kg/injection, schedule: Q01DX001 (ip), vehicle: Klucel (hydroxypropylcellulose) (HPC)) is 115 % of control; the T/C (dose: 2.3 mg/kg/injection, schedule: Q04DX003 (ip), vehicle: Klucel (hydroxypropylcellulose) (HPC)) is 100 % of control. For the same molecule, the T/C is, setting by setting: (dose: 3.0 mg/kg/injection, schedule: Q01DX009 (ip), vehicle: saline) 100 % of control; (dose: 3.0 mg/kg/injection, schedule: Q04DX003 (ip), vehicle: saline sonified) 109 % of control; (dose: 4.0 mg/kg/injection, schedule: Q04DX003 (ip), vehicle: saline) 116 % of control; (dose: 4.6 mg/kg/injection, schedule: Q04DX003 (ip), vehicle: Klucel (hydroxypropylcellulose) (HPC)) 100 % of control; (dose: 6.0 mg/kg/injection, schedule: Q01DX009 (ip), vehicle: saline) 100 % of control; (dose: 6.0 mg/kg/injection, schedule: Q04DX003 (ip), vehicle: saline sonified) 172 % of control. In addition, the T/C (dose: 6.6 mg/kg/injection, schedule: Q04DX003 (ip), vehicle: Klucel (hydroxypropylcellulose) (HPC)) was 109 % of control; the T/C (dose: 8.0 mg/kg/injection, schedule: Q04DX003 (ip), vehicle: saline) was 122 % of control; the T/C (dose: 12.0 mg/kg/injection, schedule: Q04DX003 (ip), vehicle: saline) was 122 % of control; the T/C (dose: 18.0 mg/kg/injection, schedule: Q04DX003 (ip), vehicle: saline) was 122 % of control.
Consider `Cc1ccccc1NC(=O)c1ccc([N+](=O)[O-])cc1`, for which the T/C reads like this: under setting [1], 96 % of control; under setting [2], 108 % of control; under setting [3], 96 % of control.
On to `O=C(O)COc1ccc(Cl)cc1Cl`, for which the T/C is, setting by setting: under setting [4], 118 % of control; under setting [5], 90 % of control.
`CCSc1ncnc2c1ncn2CN1CCOCC1`: the T/C was 86 % of control (dose: 25.0 mg/kg/injection, schedule: Q01DX009 (ip), vehicle: saline with Tween-80); 95 % of control under setting [4]; 168 % of control under setting [6]; 100 % of control (dose: 150.0 mg/kg/injection, schedule: Q01DX009 (ip), vehicle: saline); 110 % of control (dose: 330.0 mg/kg/injection, schedule: Q01DX009 (ip), vehicle: saline).
In the case of `C/C(C/C(C)=N\NC(=O)CN)=N/NC(=O)CN`, the T/C was 104 % of control (dose: 33.75 mg/kg/injection, schedule: Q01DX009 (ip), vehicle: saline with Tween-80); 100 % of control (dose: 67.5 mg/kg/injection, schedule: Q01DX009 (ip), vehicle: saline with Tween-80); 106 % of control (dose: 135.0 mg/kg/injection, schedule: Q01DX009 (ip), vehicle: saline with Tween-80).
Consider `O=[N+]([O-])c1cccc(OCCOc2ccc(S(=O)(=O)F)cc2)c1`, for which the T/C is 100 % of control under setting [1] and 100 % of control under setting [3].
In the case of `N#CC1C(=O)NC(=O)C(C#N)C12CCCCC2` (configuration not stated), the T/C by setting is: (dose: 50.0 mg/kg/injection, schedule: Q01DX005 (ip), vehicle: saline with Tween-80) 100 % of control; under setting [7], 110 % of control; (dose: 100.0 mg/kg/injection, schedule: Q01DX005 (ip), vehicle: saline with Tween-80) 100 % of control; under setting [1], 120 % of control; (dose: 200.0 mg/kg/injection, schedule: Q01DX005 (ip), vehicle: saline with Tween-80) 109 % of control; under setting [2], 105 % of control.
On to `Clc1ccc(N=C/C=C\C=C/Nc2ccc(Cl)cc2)cc1`, for which the T/C (dose: 20.0 mg/kg/injection, schedule: Q01DX009 (ip), vehicle: saline with Tween-80) was 91 % of control.
Regarding `C=CS(=O)(=O)c1ccccc1`, the T/C was 114 % of control (dose: 18.0 mg/kg/injection, schedule: Q01DX009 (ip), vehicle: saline with Tween-80); 90 % of control (dose: 18.0 mg/kg/injection, schedule: Q04DX003 (ip), vehicle: saline with Tween-80); 100 % of control (dose: 24.0 mg/kg/injection, schedule: Q01DX009 (ip), vehicle: saline with Tween-80); 116 % of control (dose: 36.0 mg/kg/injection, schedule: Q01DX009 (ip), vehicle: saline with Tween-80); 100 % of control (dose: 36.0 mg/kg/injection, schedule: Q04DX003 (ip), vehicle: saline with Tween-80); 114 % of control (dose: 72.0 mg/kg/injection, schedule: Q01DX009 (ip), vehicle: saline with Tween-80). In addition, under “dose: 72.0 mg/kg/injection, schedule: Q04DX003 (ip), vehicle: saline with Tween-80”, the T/C is 109 % of control.
With `C#CC(C)OCC(C)OC` (configuration not stated), the T/C (dose: 12.5 mg/kg/injection, schedule: Q04DX003 (ip), vehicle: saline with Tween-80) was 118 % of control and the T/C under setting [7] was 118 % of control.
`CC(C)NC(=O)OCc1c(COC(=O)NC(C)C)c(-c2ccc(Cl)c(Cl)c2)n2c1CCC2`: the T/C runs as follows: (dose: 12.5 mg/kg/injection, schedule: Q01DX009 (ip), vehicle: other) 204 % of control; (dose: 25.0 mg/kg/injection, schedule: Q01DX009 (ip), vehicle: other) 214 % of control.
Turning to `CC(=O)N1C(=O)N(Cl)C(=O)C1(C)c1cccs1` (configuration not stated), the T/C was 97 % of control (dose: 66.0 mg/kg/injection, schedule: Q01DX009 (ip), vehicle: saline with Tween-80); 103 % of control under setting [6]; 100 % of control under setting [5].
As for `C[N+]1=C2CCCC2=C(N)CC1`, the T/C reads like this: under setting [8], 110 % of control; under setting [9], 115 % of control; (dose: 12.5 mg/kg/injection, schedule: Q04DX003 (ip), vehicle: saline) 95 % of control; under setting [10], 100 % of control; (dose: 25.0 mg/kg/injection, schedule: Q04DX003 (ip), vehicle: saline) 100 % of control.
Consider `COc1cccc(/C=C/[N+](=O)[O-])c1OC`, for which the T/C is, setting by setting: (dose: 6.25 mg/kg/injection, schedule: Q01DX009 (ip), vehicle: Klucel (hydroxypropylcellulose) (HPC)) 113 % of control; under setting [8], 100 % of control; under setting [9], 106 % of control; (dose: 12.5 mg/kg/injection, schedule: Q01DX010 (ip), vehicle: carboxymethylcellulose (CMC)) 115 % of control; under setting [10], 104 % of control; (dose: 35.0 mg/kg/injection, schedule: Q01DX009 (ip), vehicle: Klucel (hydroxypropylcellulose) (HPC)) 117 % of control. Also, the T/C is 113 % of control (dose: 50.0 mg/kg/injection, schedule: Q01DX009 (ip), vehicle: saline); 102 % of control (dose: 50.0 mg/kg/injection, schedule: Q04DX003 (ip), vehicle: saline); 104 % of control (dose: 100.0 mg/kg/injection, schedule: Q01DX009 (ip), vehicle: saline); 98 % of control (dose: 100.0 mg/kg/injection, schedule: Q04DX003 (ip), vehicle: saline); 91 % of control (dose: 200.0 mg/kg/injection, schedule: Q01DX009 (ip), vehicle: saline); 95 % of control (dose: 200.0 mg/kg/injection, schedule: Q04DX003 (ip), vehicle: saline). Also, the T/C was 91 % of control (dose: 400.0 mg/kg/injection, schedule: Q01DX009 (ip), vehicle: saline) and 106 % of control (dose: 400.0 mg/kg/injection, schedule: Q04DX003 (ip), vehicle: saline).
Consider `[CH3][Hg][Cl]`, for which the T/C was 109 % of control (dose: 0.25 mg/kg/injection, schedule: Q01DX009 (ip), vehicle: saline); 100 % of control (dose: 0.5 mg/kg/injection, schedule: Q01DX009 (ip), vehicle: saline); 100 % of control (dose: 1.0 mg/kg/injection, schedule: Q01DX009 (ip), vehicle: saline).
Consider `C[C@]12CCC(=O)C=C1CC[C@@H]1[C@@H]2[C@@H](O)C[C@@]2(C)[C@H]1CC[C@]2(O)C(=O)COC(=O)c1ccc([N+](=O)[O-])cc1Cl`, for which the T/C under setting [1] is 100 % of control, the T/C under setting [2] was 107 % of control and the T/C under setting [3] was 103 % of control.
